Source: PubChem BioAssay (NCI)
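Test compounds were applied to cells in 96-well plates for 48 hours at 5 doses. Abbreviation: GI50, concentration required for 50% inhibition of growth. TGI denotes the concentration required for complete inhibition of growth.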

Columns and labels:
Assay in all cases: NCI-60 cell line screen, 48 h
786-0 renal = system: 786-0 renal
RXF 393 renal = system: RXF 393 renal
UO-31 renal = system: UO-31 renal
MOLT-4 leukemia = system: MOLT-4 leukemia
A549 NSCLC = system: A549 NSCLC
NCI-H522 lung = system: NCI-H522 lung
HCC-2998 colon = system: HCC-2998 colon
NCI-H460 lung = system: NCI-H460 lung
OVCAR-3 ovarian = system: OVCAR-3 ovarian
HT29 colon = system: HT29 colon
HOP-62 NSCLC = system: HOP-62 NSCLC
SK-MEL-28 melanoma = system: SK-MEL-28 melanoma
TK-10 renal = system: TK-10 renal
SF-268 CNS = system: SF-268 CNS
RPMI-8226 leukemia = system: RPMI-8226 leukemia
K-562 leukemia = system: K-562 leukemia
UACC-257 melanoma = system: UACC-257 melanoma
SK-MEL-2 melanoma = system: SK-MEL-2 melanoma
MCF7 breast = system: MCF7 breast
T-47D breast = system: T-47D breast
MDA-MB-435 = system: MDA-MB-435
OVCAR-8 ovarian = system: OVCAR-8 ovarian
NCI-H226 lung = system: NCI-H226 lung
LOX IMVI melanoma = system: LOX IMVI melanoma
HCT-116 colon = system: HCT-116 colon
SK-OV-3 ovarian = system: SK-OV-3 ovarian
SK-MEL-5 melanoma = system: SK-MEL-5 melanoma
UACC-62 melanoma = system: UACC-62 melanoma
PC-3 prostate = system: PC-3 prostate
SNB-75 CNS = system: SNB-75 CNS
SNB-19 CNS = system: SNB-19 CNS
COLO 205 colon = system: COLO 205 colon
ACHN renal = system: ACHN renal
KM12 colon = system: KM12 colon
DU-145 prostate = system: DU-145 prostate
NCI/ADR-RES ovarian = system: NCI/ADR-RES ovarian
IGROV1 ovarian = system: IGROV1 ovarian
SN12C renal = system: SN12C renal
SF-295 CNS = system: SF-295 CNS
SW-620 colon = system: SW-620 colon
OVCAR-5 ovarian = system: OVCAR-5 ovarian
CAKI-1 renal = system: CAKI-1 renal
U251 CNS = system: U251 CNS
EKVX NSCLC = system: EKVX NSCLC
MALME-3M melanoma = system: MALME-3M melanoma
HCT-15 colon = system: HCT-15 colon
CCRF-CEM leukemia = system: CCRF-CEM leukemia
MDA-MB-231 breast = system: MDA-MB-231 breast
SF-539 CNS = system: SF-539 CNS
HL-60(TB) leukemia = system: HL-60(TB) leukemia
HOP-92 NSCLC = system: HOP-92 NSCLC
M14 melanoma = system: M14 melanoma
BT-549 breast = system: BT-549 breast
NCI-H23 lung = system: NCI-H23 lung
HS 578T breast = system: HS 578T breast
OVCAR-4 ovarian = system: OVCAR-4 ovarian
SR leukemia = system: SR leukemia

In the case of `CC(C)=CCc1c2c(c(O)c3c1O[C@]14C(=C[C@@H]5C[C@H]1C(C)(C)O[C@@]4(C/C=C(/C)C(=O)O)C5=O)C3=O)C=CC(C)(C)O2`, the GI50 (786-0 renal) is reported as 4.27 µM, the TGI (786-0 renal) is reported as 16.4 µM and the GI50 (RXF 393 renal) is reported as 12.6 µM. For the same compound, the TGI (RXF 393 renal) was 28.2 µM, the GI50 (UO-31 renal) was 9.78 µM and the TGI (UO-31 renal) was 23.1 µM. The GI50 (MOLT-4 leukemia) was 14.3 µM, the TGI (MOLT-4 leukemia) was 63 µM and the GI50 (A549 NSCLC) was 20.9 µM. For the same compound, the TGI (A549 NSCLC) was 45.6 µM, the GI50 (NCI-H522 lung) was 16 µM and the TGI (NCI-H522 lung) was 30.3 µM. The GI50 (HCC-2998 colon) was 18.5 µM, the TGI (HCC-2998 colon) was 35.9 µM and the GI50 (NCI-H460 lung) was 15.8 µM. The TGI (NCI-H460 lung) was 32.1 µM, the GI50 (OVCAR-3 ovarian) was 10.2 µM and the TGI (OVCAR-3 ovarian) was 22 µM. For the same compound, the GI50 (HT29 colon) was 12.9 µM, the TGI (HT29 colon) was 32.6 µM and the GI50 (HOP-62 NSCLC) was 15.4 µM. For the same compound, the TGI (HOP-62 NSCLC) was 31.5 µM, the GI50 (SK-MEL-28 melanoma) was 15 µM and the TGI (SK-MEL-28 melanoma) was 30.1 µM. For the same compound, the GI50 (TK-10 renal) was 18 µM, the TGI (TK-10 renal) was 32.3 µM and the GI50 (SF-268 CNS) was 15.4 µM. The TGI (SF-268 CNS) was 31.4 µM, the GI50 (RPMI-8226 leukemia) was 3.19 µM and the TGI (RPMI-8226 leukemia) was 13.9 µM. It also gave a GI50 (K-562 leukemia) of 6.43 µM, a TGI (K-562 leukemia) greater than 100 µM and a GI50 (UACC-257 melanoma) of 12.7 µM. For the same compound, the TGI (UACC-257 melanoma) was 28 µM, the GI50 (SK-MEL-2 melanoma) was 18.1 µM and the TGI (SK-MEL-2 melanoma) was 38.5 µM. The GI50 (MCF7 breast) was 5.59 µM, the TGI (MCF7 breast) was 42.4 µM and the GI50 (T-47D breast) was 10 µM. It also gave a TGI (T-47D breast) of 31.1 µM, a GI50 (MDA-MB-435) of 14.3 µM and a TGI (MDA-MB-435) of 29.5 µM. It also gave a GI50 (OVCAR-8 ovarian) of 12.7 µM, a TGI (OVCAR-8 ovarian) of 33.6 µM and a GI50 (NCI-H226 lung) of 21.7 µM. It also gave a TGI (NCI-H226 lung) of 50.2 µM, a GI50 (LOX IMVI melanoma) of 3.51 µM and a TGI (LOX IMVI melanoma) of 14.4 µM. The GI50 (HCT-116 colon) was 11.4 µM, the TGI (HCT-116 colon) was 24.2 µM and the GI50 (SK-OV-3 ovarian) was 24.7 µM. For the same compound, the TGI (SK-OV-3 ovarian) was 51.3 µM, the GI50 (SK-MEL-5 melanoma) was 16.4 µM and the TGI (SK-MEL-5 melanoma) was 30.7 µM. For the same compound, the GI50 (UACC-62 melanoma) was 15.3 µM, the TGI (UACC-62 melanoma) was 32.2 µM and the GI50 (PC-3 prostate) was 14 µM. For the same compound, the TGI (PC-3 prostate) was 31.1 µM, the GI50 (SNB-75 CNS) was 13.9 µM and the TGI (SNB-75 CNS) was 32.4 µM. It also gave a GI50 (SNB-19 CNS) of 17.2 µM, a TGI (SNB-19 CNS) of 33.6 µM and a GI50 (COLO 205 colon) of 17 µM. For the same compound, the TGI (COLO 205 colon) was 37.9 µM, the GI50 (ACHN renal) was 12.2 µM and the TGI (ACHN renal) was 25.7 µM. The GI50 (KM12 colon) was 16.7 µM, the TGI (KM12 colon) was 33.5 µM and the GI50 (DU-145 prostate) was 15.6 µM. It also gave a TGI (DU-145 prostate) of 29 µM, a GI50 (NCI/ADR-RES ovarian) of 21.3 µM and a TGI (NCI/ADR-RES ovarian) of 75.3 µM. For the same compound, the GI50 (IGROV1 ovarian) was 4.64 µM, the TGI (IGROV1 ovarian) was 17.7 µM and the GI50 (SN12C renal) was 17.5 µM. The TGI (SN12C renal) was 46.3 µM, the GI50 (SF-295 CNS) was 17.7 µM and the TGI (SF-295 CNS) was 36.5 µM. It also gave a GI50 (SW-620 colon) of 4.06 µM, a TGI (SW-620 colon) of 17.4 µM and a GI50 (OVCAR-5 ovarian) of 17.6 µM. For the same compound, the TGI (OVCAR-5 ovarian) was 36.3 µM, the GI50 (CAKI-1 renal) was 16.6 µM and the TGI (CAKI-1 renal) was 32.1 µM. It also gave a GI50 (U251 CNS) of 10.4 µM, a TGI (U251 CNS) of 22.6 µM and a GI50 (EKVX NSCLC) of 17.2 µM. For the same compound, the TGI (EKVX NSCLC) was 41.4 µM, the GI50 (MALME-3M melanoma) was 13.1 µM and the TGI (MALME-3M melanoma) was 27.8 µM. It also gave a GI50 (HCT-15 colon) of 6.65 µM, a TGI (HCT-15 colon) of 33.8 µM and a GI50 (CCRF-CEM leukemia) of 0.987 µM. The TGI (CCRF-CEM leukemia) was 23.4 µM, the GI50 (MDA-MB-231 breast) was 13.2 µM and the TGI (MDA-MB-231 breast) was 33.7 µM. For the same compound, the GI50 (SF-539 CNS) was 16.5 µM, the TGI (SF-539 CNS) was 35.1 µM and the GI50 (HL-60(TB) leukemia) was 12 µM. For the same compound, the TGI (HL-60(TB) leukemia) was 43.2 µM, the GI50 (HOP-92 NSCLC) was 11.7 µM and the TGI (HOP-92 NSCLC) was 26.7 µM. It also gave a GI50 (M14 melanoma) of 12.8 µM, a TGI (M14 melanoma) of 29.5 µM and a GI50 (BT-549 breast) of 14.4 µM. It also gave a TGI (BT-549 breast) of 29.1 µM, a GI50 (NCI-H23 lung) of 19.6 µM and a TGI (NCI-H23 lung) of 49.4 µM. It also gave a GI50 (HS 578T breast) of 17.3 µM, a TGI (HS 578T breast) of 58.9 µM and a GI50 (OVCAR-4 ovarian) of 15.6 µM. For the same compound, the TGI (OVCAR-4 ovarian) was 36.8 µM, the GI50 (SR leukemia) was 3.13 µM and the TGI (SR leukemia) was greater than 100 µM.
